According to patent US7928135B2, “Benzene, pyridine, and pyridazine derivatives” (Serenex, Inc., priority 2005, dated 2011):

test system: PC-3 cell proliferation; test: Cell proliferation assay (WST-1), PC-3; assay type: cell-based; conditions: Homo sapiens; PC-3 cells, WST-1 readout; read-out: inhibitory activity against PC-3 cell proliferation (IC50 range)
Procedure: A panel of cancer cell lines was obtained from the DCTP Tumor Repository, National Cancer Institute (Frederick, Md.) or ATCC (Rockville, Md.). Cell cultures were maintained in Hyclone RPMI 1640 medium (Logan, Utah) supplemented with 10% fetal bovine serum and 20 mM HEPES buffer, final pH 7.2, at 37° C. with a 5% CO2 atmosphere. Cultures were maintained at sub-confluent densities. Human umbilical vein endothelial cells (HUVEC) were purchased from Clonetics, a division of Cambrex (Walkersville, Md.). Cultures were established from cryopreserved stocks using Clonetics EGM-2 medium supplemented with 20 mM HEPES, final pH 7.2, at 37° C. with a 5% CO2 atmosphere.
For proliferation assays, cells were seeded with the appropriate medium into 96 well plates at 1,000-2,500 cells per well, depending on the cell line, and were incubated overnight. The following day, test compound, DMSO solution (negative control), or Actinomycin D (positive control) was added to the appropriate wells as 10× concentrated stocks prepared in phosphate buffered saline. The cell plates were then incubated for an additional 2-5 days, depending on the cell line, to allow proliferation to occur. To measure cell density, 50 μL of WST-1 solution (Roche Applied Science, Ind.) diluted 1:5 in phosphate buffered saline was added to each well, and the cells incubated for an additional 1-5 hrs., again depending on the cell line. Optical density was determined for each well at […] using a Tecan GeniosPro plate reader (RTP, NC). The percentage of cell growth was determined by comparing the cell growth in the presence of test compounds to the cells treated with DMSO vehicle (control, 100% growth) and cells treated with Actinomycin D (10 μM, 0% growth). […]

IC50 [µM] | Compound
0.5 to 5 | Cc1cn(-c2ccc(C(N)=O)c(NC(N)=O)c2)c2c1C(=O)CC(C)(C)C2 [Compound 55, 1-(2-carbamoyl-5-(3,6,6-trimethyl-4-oxo-4,5,6,7-tetrahydroindol-1-yl)phenyl)urea]
5 to 50 | Cc1cc2c(n1-c1ccc(C(N)=O)cc1-c1ccsc1)CC(C)(C)CC2=O [Compound 70, 3-(3-thienyl)-4-(2,6,6-trimethyl-4-oxo-4,5,6,7-tetrahydro-1H-indol-1-yl)benzamide]

Compound | IC50 [µM]
CCCCOc1cc(C(N)=O)ccc1-n1cc(C)c2c1CC(C)(C)CC2=O [Compound 53, 3-butoxy-4-(3,6,6-trimethyl-4-oxo-4,5,6,7-tetrahydroindol-1-yl)benzamide] | 5 to 50

test system: HSP-90 (heat shock protein 90); test: Determination of affinity for HSP-90 (elution from purine affinity column, SDS-PAGE densitometry); assay type: binding; parameters: key: +++: very high; ++: high; +: moderate; conditions: elution of HSP-90 from purine affinity column with 20, 100 and 500 μM test compound
Procedure: Affinity of test compounds for HSP-90 was determined as follows: Protein mixtures obtained from a variety of organ tissues (for example: spleen, liver and lung) were reversibly bound to a purine affinity column to capture purine-binding proteins, especially HSP-90. The purine affinity column was washed several times, and then eluted with 20 μM, 100 μM, and 500 μM of test compound. Compounds of Formula I elute HP-90 in a dose-dependent manner vs. a control elution using dimethylsulfoxide. The elution profile of Formula I compounds was determined by 1-dimensional SDS polyacrylamide gel electrophoresis. Gels were stained with a fluorescent stain such as sypro ruby (a highly sensitive fluorescent protein stain that can readily detect less than 1 fmol of total protein, i.e., less than 0.04 ng for a 40 kDa protein) or silver nitrate. The gels were imaged using a standard flat bed gel imager and the amount of protein estimated by densitometry. The percent of HSP-90 protein eluted from the column at each concentration was determined and IC50 values were calculated from these estimates. The identity of a band containing HSP-90 was determined by protein sequencing using mass spectroscopy.
Compounds of the invention are inhibitors of HSP-90 (heat shock protein 90). Several exemplary compounds useful in the methods of the invention are listed below.

Compound | relative binding affinity to HSP-90
CC1(C)CC(=O)c2c(C(F)F)nn(-c3ccc(C(N)=O)c(NC4CCSCC4)c3)c2C1 [Compound 32, 4-(3-Difluoromethyl-6,6-dimethyl-4-oxo-4,5,6,7-tetrahydro-indazol-1-yl)-2-(tetrahydro-thiopyran-4-ylamino)-benzamide] | +++
Cc1nn(-c2ccc(C(N)=O)c(NCCCN3CCCC3=O)c2)c2c1C(=O)CC(C)(C)C2 [Compound 34, 2-[3-(2-Oxo-pyrrolidin-1-yl)-propylamino]-4-(3,6,6-trimethyl-4-oxo-4,5,6,7-tetrahydro-indazol-1-yl)-benzamide] | ++
CCCCOc1cc(C(N)=O)ccc1-n1cc(C)c2c1CC(C)(C)CC2=O [Compound 53, 3-butoxy-4-(3,6,6-trimethyl-4-oxo-4,5,6,7-tetrahydroindol-1-yl)benzamide] | ++
Cc1cn(-c2ccc(C(N)=O)c(NC3CCc4ccccc43)c2)c2c1C(=O)CC(C)(C)C2 (stereo not shown) [Compound 54, 2-(2,3-dihydro-1H-inden-1-ylamino)-4-(3,6,6-trimethyl-4-oxo-4,5,6,7-tetrahydroindol-1-yl)benzamide] | +
Cc1cn(-c2ccc(C(N)=O)c(NC(N)=O)c2)c2c1C(=O)CC(C)(C)C2 [Compound 55, 1-(2-carbamoyl-5-(3,6,6-trimethyl-4-oxo-4,5,6,7-tetrahydroindol-1-yl)phenyl)urea] | ++
Cc1cc2c(n1-c1ccc(C(N)=O)cc1-c1ccsc1)CC(C)(C)CC2=O [Compound 70, 3-(3-thienyl)-4-(2,6,6-trimethyl-4-oxo-4,5,6,7-tetrahydro-1H-indol-1-yl)benzamide] | +
Cc1cc2c(n1-c1cnc(C(N)=O)c(Nc3ccccc3)c1)CC(C)(C)CC2=O [Compound 75, 3-anilino-5-(2,6,6-trimethyl-4-oxo-4,5,6,7-tetrahydro-1H-indol-1-yl)pyridine-2-carboxamide] | +++
Cc1cc2c(n1-c1ccc(C(N)=O)c(N3CCOCC3)c1)CC(C)(C)CC2=O [Compound 79, 2-morpholin-4-yl-4-(2,6,6-trimethyl-4-oxo-4,5,6,7-tetrahydro-1H-indol-1-yl)benzamide] | +
CCn1nccc1Nc1cc(-n2c(C)cc3c2CC(C)(C)CC3=O)ccc1C(N)=O [Compound 83, 2-[(1-ethyl-1H-pyrazol-5-yl)amino]-4-(2,6,6-trimethyl-4-oxo-4,5,6,7-tetrahydro-1H-indol-1-yl)benzamide] | +++
COc1ccc(Nc2cc(-n3c(C)cc4c3CC(C)(C)CC4=O)ccc2C(N)=O)cn1 [Compound 87, 2-[(6-methoxypyridin-3-yl)amino]-4-(2,6,6-trimethyl-4-oxo-4,5,6,7-tetrahydro-1H-indol-1-yl)benzamide] | ++
C=CCNc1cc(-n2c(C)c(C)c3c2CCCC3=O)ccc1C(N)=O [Compound 91, 2-(allylamino)-4-(2,3-dimethyl-4-oxo-4,5,6,7-tetrahydro-1H-indol-1-yl)benzamide] | ++
COCCNc1cc(-n2c(C)c(C)c3c2CCCC3=O)ccc1C(N)=O [Compound 92, 4-(2,3-dimethyl-4-oxo-4,5,6,7-tetrahydro-1H-indol-1-yl)-2-[(2-methoxyethyl)amino]benzamide] | ++
COCCNc1cc(-n2nc(C)c3c2CC(C)(C)CC3=O)ccc1C(N)=O [Compound 95, 2-[(2-methoxyethyl)amino]-4-(3,6,6-trimethyl-4-oxo-4,5,6,7-tetrahydro-1H-indazol-1-yl)benzamide] | +++
Cc1cn(-c2ccc(C(N)=O)c(NCCN3CCOCC3)c2)c2c1C(=O)CC(C)(C)C2 [Compound 96, 2-[(2-morpholin-4-ylethyl)amino]-4-(3,6,6-trimethyl-4-oxo-4,5,6,7-tetrahydro-1H-indol-1-yl)benzamide] | +++
COc1cc(Nc2cc(-n3nc(C(F)(F)F)c4c3CC(C)(C)CC4=O)ccc2C(N)=O)cc(OC)c1OC [Compound 107, 4-[6,6-dimethyl-4-oxo-3-(trifluoromethyl)-4,5,6,7-tetrahydro-1H-indazol-1-yl]-2-[(3,4,5-trimethoxyphenyl)amino]benzamide] | ++
Cc1cn(-c2ccc(C(N)=O)c(NC3CCN(C(=O)CN(C)C)CC3)c2)c2c1C(=O)CC(C)(C)C2 [Compound 109, 2-{[1-(N,N-dimethylglycyl)piperidin-4-yl]amino}-4-(3,6,6-trimethyl-4-oxo-4,5,6,7-tetrahydro-1H-indol-1-yl)benzamide] | ++
Cc1nn(-c2ccc(C(N)=O)c(Nc3ccc(=O)[nH]c3)c2)c2c1C(=O)CC(C)(C)C2 [Compound 115, 2-[(6-oxo-1,6-dihydropyridin-3-yl)amino]-4-(3,6,6-trimethyl-4-oxo-4,5,6,7-tetrahydro-1H-indazol-1-yl)benzamide] | +++
Cc1nn(-c2ccc(C(N)=O)c(NC3CN(S(C)(=O)=O)C3)c2)c2c1C(=O)CC(C)(C)C2 [Compound 131, 2-{[1-(methylsulfonyl)azetidin-3-yl]amino}-4-(3,6,6-trimethyl-4-oxo-4,5,6,7-tetrahydro-1H-indazol-1-yl)benzamide] | ++
Cc1nn(-c2ccc(C(N)=O)c(NCCCS(C)(=O)=O)c2)c2c1C(=O)CC(C)(C)C2 [Compound 132, 2-{[3-(methylsulfonyl)propyl]amino}-4-(3,6,6-trimethyl-4-oxo-4,5,6,7-tetrahydro-1H-indazol-1-yl)benzamide] | +++

Further lines, results first:

relative binding affinity to HSP-90 | Compound
+++ | C=CCNc1cc(-n2cc(C)c3c2CC(C)(C)CC3=O)ccc1C(N)=O [Compound 50, 2-(allylamino)-4-(3,6,6-trimethyl-4-oxo-4,5,6,7-tetrahydroindol-1-yl)benzamide]
+ | Cc1cc2c(n1-c1ccc(C(N)=O)c(Nc3ccc(Cl)cc3)c1)CC(C)(C)CC2=O [Compound 73, 2-[(4-chlorophenyl)amino]-4-(2,6,6-trimethyl-4-oxo-4,5,6,7-tetrahydro-1H-indol-1-yl)benzamide]
+ | Cc1cc2c(n1-c1ccc(C(N)=O)c(N[C@H](C(=O)O)C(C)C)c1)CC(C)(C)CC2=O [Compound 78, N-[2-(aminocarbonyl)-5-(2,6,6-trimethyl-4-oxo-4,5,6,7-tetrahydro-1H-indol-1-yl)phenyl]-L-valine]
+ | Cc1cc2c(n1-c1ccc(C(N)=O)c(-n3ccnc3)c1)CC(C)(C)CC2=O [Compound 80, 2-(1H-imidazol-1-yl)-4-(2,6,6-trimethyl-4-oxo-4,5,6,7-tetrahydro-1H-indol-1-yl)benzamide]
++ | COc1cc(Nc2cc(-n3ccc4c3CCCC4=O)ccc2C(N)=O)cc(OC)c1OC [Compound 86, 4-(4-oxo-4,5,6,7-tetrahydro-1H-indol-1-yl)-2-[(3,4,5-trimethoxyphenyl)amino]benzamide]
++ | C=CCNc1cc(-n2ccc3c2CCCC3=O)ccc1C(N)=O [Compound 88, 2-(allylamino)-4-(4-oxo-4,5,6,7-tetrahydro-1H-indol-1-yl)benzamide]
+++ | CC(=O)OCC(=O)NCCNc1cc(-n2cc(C)c3c2CC(C)(C)CC3=O)ccc1C(N)=O [Compound 111, 2-[(2-{[2-(aminocarbonyl)-5-(3,6,6-trimethyl-4-oxo-4,5,6,7-tetrahydro-1H-indol-1-yl)phenyl]amino}ethyl)amino]-2-oxoethyl acetate]
++ | C=CCCc1nn(-c2ccc(C(N)=O)cc2)c2c1C(=O)CC(C)(C)C2 [Compound 134, 4-(3-but-3-en-1-yl-6,6-dimethyl-4-oxo-4,5,6,7-tetrahydro-1H-indazol-1-yl)benzamide]
+++ | Cc1nn(-c2ccc(C(N)=O)c(N[C@H]3CCN(S(C)(=O)=O)C3)c2)c2c1C(=O)CC(C)(C)C2 [Compound 135, 2-{[(3S)-1-(methylsulfonyl)pyrrolidin-3-yl]amino}-4-(3,6,6-trimethyl-4-oxo-4,5,6,7-tetrahydro-1H-indazol-1-yl)benzamide]
